In data set [1] the target is T1, CB1 cannabinoid receptor (Rattus norvegicus, UniProt P20272).
T1 construct: membranes were prepared from rat forebrain membranes; from tissue; host or cells: rat forebrain
Briefly: CB1 receptor binding assay, [3H] CP-55,940 displacement, rat forebrain membranes. As for the experimental part:
Some inventive analogs were tested for CB2 receptor binding affinity and for CB1 receptor affinity (to determine selectivity). As used herein, “binding affinity” is represented by the IC50 value which is the concentration of an analog required to occupy the 50% of the total number (Bmax) of the receptors. The lower the IC50 value the higher the binding affinity. […] For the CB1 receptor binding studies, membranes were prepared from rat forebrain membranes according to the procedure of P. R. Dodd et al, A Rapid Method for Preparing Synaptosomes: Comparison with Alternative Procedures, Brain Res., 107-118 (1981). The binding of the novel analogues to the CB1 cannabinoid receptor was assessed as described in W. A. Devane et al, Determination and Characterization of a Cannabinoid Receptor in a Rat Brain, Mol. Pharmacol., 34, 605-613 (1988) and A. Charalambous et al, 5′-azido Δ^8- THC: A Novel Photoaffinity Label for the Cannabinoid Receptor, J. Med. Chem., 35, 3076-3079 (1992) with the following changes. The above articles are incorporated by reference herein.
Membranes, previously frozen at −80° C., were thawed on ice. To the stirred suspension was added three volumes of TME (25 mM Tris-HCl buffer, 5 mM MgCl2 and 1 mM EDTA) at a pH 7.4. The suspension was incubated at 4° C. for 30 min. At the end of the incubation, the membranes were pelleted and washed three times with TME.
The treated membranes were subsequently used in the binding assay described below. Approximately 30 μg of membranes were incubated in silanized 96-well microtiter plate with TME containing 0.1% essentially fatty acid-free bovine serum albumin (BSA), 0.8 nM [^3H] CP-55,940, and various concentrations of test materials in a final volume of 200 μL. The assays were incubated for 1 hour at 30° C. and then immediately filtered using Packard Filtermate 196 harvester and Whatman GF/C filterplates and washed with wash buffer (TME) containing 0.5% BSA. Radioactivity was detected using MicroScint 20 scintillation cocktail added directly to the dried filterplates, and the filterplates were counted using a Packard Instruments Top-Count. Nonspecific binding was assessed using 100 nM CP-55,940. Data collected from three independent experiments performed with duplicate determinations was normalized between 100% and 0% specific binding for [^3H] CP-55,940, determined using buffer and 100 nM CP-55,940. The normalized data was analyzed using a 4-parameter nonlinear logistic equation to yield IC50 values. Data from at least two independent experiments performed in duplicate was used to calculate IC50 values which were converted to Ki values using the assumptions of Cheng et al, Relationship Between the Inhibition Constant (Ki) and the concentration of Inhibitor which causes 50% Inhibition (IC50) of an Enzymatic Reaction, Biochem. Pharmacol., 22, 3099-3102, (1973), which is incorporated by reference herein.

For data set [2], the target named is T2, CB2 receptor (Mus musculus, UniProt P47936).
T2 construct: membranes were prepared from frozen mouse spleen; from tissue; host or cells: mouse spleen
T2 sequence (P47936 whole entry): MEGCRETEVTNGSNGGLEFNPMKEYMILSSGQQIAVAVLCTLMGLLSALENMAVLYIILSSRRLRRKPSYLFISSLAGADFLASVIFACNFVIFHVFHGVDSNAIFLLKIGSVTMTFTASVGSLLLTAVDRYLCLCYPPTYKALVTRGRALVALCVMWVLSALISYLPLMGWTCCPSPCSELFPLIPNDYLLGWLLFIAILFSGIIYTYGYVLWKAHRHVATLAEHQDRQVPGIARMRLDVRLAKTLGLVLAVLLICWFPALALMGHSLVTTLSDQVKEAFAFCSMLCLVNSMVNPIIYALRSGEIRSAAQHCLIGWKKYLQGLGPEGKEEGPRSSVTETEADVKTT
Briefly: CB2 receptor binding assay, [3H] CP-55,940 displacement, mouse spleen membranes.

Where [3] appears, read: Table 1, bicyclic-cannabinoid analogs, rat forebrain membranes, 0.8 nM [3H] CP-55,940, read-out: Ki in nM for the CB1 Receptor.

The record followed here is US7285683B2, “Bicyclic and tricyclic cannabinoids” (University of Connecticut, priority 2001, dated 2007).

Read-outs that look alike come from different tables or passages of the source.

T1 sequence (P20272 whole entry): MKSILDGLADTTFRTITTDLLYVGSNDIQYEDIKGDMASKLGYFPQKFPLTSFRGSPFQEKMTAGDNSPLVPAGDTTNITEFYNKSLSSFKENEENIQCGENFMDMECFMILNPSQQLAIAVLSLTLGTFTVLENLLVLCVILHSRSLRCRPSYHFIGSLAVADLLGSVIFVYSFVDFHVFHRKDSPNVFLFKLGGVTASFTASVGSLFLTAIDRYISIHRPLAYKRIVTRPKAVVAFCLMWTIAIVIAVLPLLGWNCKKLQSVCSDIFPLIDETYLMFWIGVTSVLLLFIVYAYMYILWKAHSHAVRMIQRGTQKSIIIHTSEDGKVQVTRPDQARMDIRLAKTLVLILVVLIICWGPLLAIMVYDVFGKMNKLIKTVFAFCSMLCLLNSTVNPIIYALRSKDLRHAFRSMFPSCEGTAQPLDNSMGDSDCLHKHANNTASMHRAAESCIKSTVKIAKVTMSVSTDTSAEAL

For orientation: Ki means the dissociation constant of the complex between target and ligand, obtained from inhibition or displacement. Take `C#CCCCCC(C)(C)c1cc(O)c2c(c1)OC(C)(C)[C@@H]1CCC(=O)C[C@@H]21` [Compound 4e, (−)-trans-3-(1′,1′-dimethylhept-6′-ynyl)-6,6a,7,8,10,10a-hexahydro-1-hydroxy-6,6-dimethyl-9H-dibenzo[b,d]pyran-9-one]: the Ki amounted to 10.7 nM in data set [1] and 4.1 nM in data set [2].

Regarding `CC(C)(CCCCCCBr)c1cc(O)c2c(c1)OC(C)(C)[C@@H]1CC[C@@H](N=[N+]=[N-])C[C@@H]21` [Compound 7d, 1-Hydroxy-3-(7′-bromo-1′,1′-dimethylheptyl)-6,6-dimethyl-9β-azido-6a,7,8,8,10,10a-hexahydro-6H-dibenzo[b,d]pyran], the results for the Ki in data set [1] and in data set [2] were 1.6 nM and 13.7 nM, respectively.

In general, melting point refers to the temperature, or range, at which the solid turns liquid. `CCCCCCC1(c2cc(O)c([C@@H]3CC(=O)[C@@H]4C[C@H]3C4(C)C)c(O)c2)CCCC1` [Compound 2a, (4R)-4-[4-(1′,1′-cyclopentylheptyl)-2,6-dihydroxyphenyl]-6,6-dimethyl-2-norpinanone] gave a melting point of 187 to 188 °C. This compound returned a Ki in data set [1] of 50.6 nM. For the same compound, in data set [2], the Ki was found to be 0.4 nM.

Turning to `CC(C)(CCCCCCBr)c1cc(O)c([C@@H]2CC(=O)[C@@H]3C[C@H]2C3(C)C)c(O)c1` [Compound 2d, (4R)4-[4-(7′-bromo-1′,1′-dimethylheptyl)-2,6-dihydroxyphenyl]-6,6-dimethyl-2-norpinanone], the Ki was 10.6 nM in data set [1] and 9.3 nM in data set [2].

For the compound `CC(C)(CCCCCCBr)c1cc(O)c2c(c1)OC(C)(C)[C@@H]1CCC(=O)C[C@@H]21` (relative stereo) [Compound 4d, (−)-trans-3-(7′-bromo-1′,1′-dimethylheptyl)-6,6a,7,8,10,10a-hexahydro-1-hydroxy-6,6-dimethyl-9H-dibenzo[b,d]pyran-9-one], the figures for the Ki in data set [1] and in data set [2] were 1 nM and 11.8 nM, respectively.

On to `CC(C)(CCCCC=CI)c1cc(O)c2c(c1)OC(C)(C)[C@@H]1CC[C@@H](N=[N+]=[N-])C[C@@H]21` [Compound 9, 1-Hydroxy-3-(7′-iodo-1′,1′-dimethylhept-6′-enyl)-6,6-dimethyl-9β-azido-6a,7,8,8,10,10a-hexahydro-6H-dibenzo[b,d]pyran], for which the Ki in data set [1] and in data set [2] was 0.7 nM in each case.

Regarding `CCCCCCC1(c2cc(O)c([C@@H]3CC(O)[C@@H]4C[C@H]3C4(C)C)c(O)c2)SCCS1` (stereo partly drawn) [Compound 3, (4R)4-[4-(2-hexyl-1,3-dithiolan-2-yl)-2,6-dihydroxyphenyl]-6,6-dimethyl-2β-norpinanol and (4R)-4-[4-(2-hexyl-1,3-dithiolan-2-yl)-2,6-dihydroxyphenyl]-6,6-dimethyl-2α-norpinanol], the Ki amounted to 133 nM in data set [1] (setting [3]) and 76.8 nM in data set [2].

As for `CC(C)(CCCCCCI)c1cc(O)c2c(c1)OC(C)(C)[C@@H]1CC[C@@H](N=[N+]=[N-])C[C@@H]21` [Compound 8, 1-Hydroxy-3-(7′-iodo-1′,1′-dimethylheptyl)-6,6-dimethyl-9β-azido-6a,7,8,8,10,10a-hexahydro-6H-dibenzo[b,d]pyran], the Ki in data set [1] is 0.8 nM; in data set [2], 0.9 nM.

Regarding `CCCCCCC1(c2cc(O)c([C@@H]3CC(=O)C4CC3C4(C)C)c(O)c2)SCCS1` (stereo partly drawn) [Compound 2c, (4R)-4-[4-(2-hexyl-1,3-dithiolan-2-yl)-2,6-dihydroxyphenyl]-6,6-dimethyl-2-norpinanone], the melting point is 160 to 161 °C (dec.). In data set [1] (setting [3]), the Ki came to 224 nM. The same compound came in with a Ki in data set [2] of 10.9 nM.

Regarding `CCCCCCC1(c2cc(O)c3c(c2)OC(C)(C)[C@@H]2CCC(=O)C[C@@H]32)SCCS1` (single isomer, unassigned) [Compound 4c, (−)-trans-3-(2-hexyl-1,3-dithiolan-2-yl)-6,6a,7,8,10,10a-hexahydro-1-hydroxy-6,6-dimethyl-9H-dibenzo[b,d]pyran-9-one], the melting point was 62 to 64 °C (dec.). Besides, in data set [1], the Ki was 11.7 nM. Moreover, in data set [2], the Ki stood at 2.3 nM.

`CCCCCCC1(c2cc(O)c3c(c2)OC(C)(C)[C@@H]2CCC(=O)C[C@@H]32)CCCC1` [Compound 4a, (−)-trans-3-(1′,1′-cyclopentylheptyl)-6,6a,7,8,10,10a-hexahydro-1-hydroxy-6,6-dimethyl-9H-dibenzo[b,d]pyran-9-one]: the Ki in data set [1] was 0.1 nM; in data set [2] it was 2.6 nM.

Take `CCCCC=CC1(c2cc(O)c3c(c2)OC(C)(C)[C@@H]2CCC(=O)C[C@@H]32)CCCC1` [Compound 4b, (−)-trans-3-(1′,1′-cyclopentylhept-2′-enyl)-6,6a,7,8,10,10a-hexahydro-1-hydroxy-6,6-dimethyl-9H-dibenzo[b,d]pyran-9-one]: the Ki in data set [1] and in data set [2] was 0.2 nM in each case.

In the case of `C#CCCCCC(C)(C)c1cc(O)c([C@@H]2CC(=O)[C@@H]3C[C@H]2C3(C)C)c(O)c1` [Compound 2e, (4R)-4-[4-(1′,1′-dimethylhept-6′-ynyl)-2,6-dihydroxyphenyl]-6,6-dimethyl-2-norpinanone], the Ki in data set [1] is 30.8 nM; in data set [2], 0.2 nM.

`CCCCC=CC1(c2cc(O)c([C@@H]3CC(=O)[C@@H]4C[C@H]3C4(C)C)c(O)c2)CCCC1` [Compound 2b, (4R)4-[4-(1′,1′-cyclopentylhept-2′-enyl)-2,6-dihydroxyphenyl]-6,6-dimethyl-2-norpinanone] had a melting point of 167 to 168 °C. The Ki in data set [1] came to 74.5 nM. In data set [2], this compound registered an inhibition constant (Ki) of 0.4 nM.

`CCCCCCC(C)(C)c1cc(O)c2c(c1)OC(C)(C)[C@@H]1CC[C@@H](N=[N+]=[N-])C[C@@H]21` [Compound 7g, 1-Hydroxy-3-(1′,1′-dimethylheptyl)-6,6-dimethyl-9β-azido-6a,7,8,8,10,10a-hexahydro-6H-dibenzo[b,d]pyran]: the results for the Ki in data set [1] and in data set [2] were 5 nM and 10.2 nM, respectively.

Regarding `CCCCCCC1(c2cc(O)c3c(c2)OC(C)(C)[C@@H]2CC[C@@H](O)C[C@@H]32)SCCS1` [Compound 5, 6a,7,8,9,10,10a-Hexahydro-3-(2-hexyl-1,3-dithiolan-2-yl)-6,6-dimethyl-6H-dibenzo[b,d]pyran-1,9β-diol], in data set [2], the affinity, expressed as Ki, was 13.9 nM.

Consider `C#CCCCCC(C)(C)c1cc(O)c2c(c1)OC(C)(C)[C@@H]1CC[C@H](O)C[C@@H]21` [Compound 6e, 6a,7,8,9,10,10a-Hexahydro-3-(1′,1′-dimethylhept-6′-ynyl)-6,6-dimethyl-6H-dibenzo[b,d]pyran-1,9α-diol], for which the Ki in data set [1] (Table 2, hexahydrocannabinol analogs, rat forebrain membranes, 0.8 nM [3H] CP-55,940, read-out: Ki in nM for the CB1 Receptor) turned out to be 11.3 nM; in data set [2], 12 nM.
